Data reported in US20260216255A1, “STRAIN OF COLLINSELLA, AND PHARMACEUTICAL COMPOSITION THEREOF” (MOON (GUANGZHOU) BIOTECH CO., LTD., priority 2022, published 2026).

System: strain MNH 18574
Experiment: Antibiotic sensitivity test by disk diffusion method
Format: cell-based, Collinsella sp.
Conditions: for Diameter of inhibition zone: strain MNH 18574
Description: An antibiotic sensitivity test was carried out on the strain MNH 18574 by a disk diffusion method.

| Compound | sensitivity or resistance of strain MNH 18574 to the antibiotic | Diameter of inhibition zone [mm] |
| --- | --- | --- |
| CC1(C)S[C@@H]2[C@H](NC(=O)[C@H](N)c3ccccc3)C(=O)N2[C@H]1C(=O)O [Ampicillin (AMP), Ampicillin] | resistant | 0 |
| CO/N=C(\C(=O)N[C@@H]1C(=O)N2C(C(=O)O)=C(CSc3nc(=O)c(=O)[nH]n3C)CS[C@H]12)c1csc(N)n1 [Ceftriaxone (CTR), Ceftriaxone] | resistant | 0 |
| O=C(N[C@H](CO)[C@H](O)c1ccc([N+](=O)[O-])cc1)C(Cl)Cl [Chloramphenicol (CLM), Chloramphenicol] | sensitive | 27.64 |
| O=C(O)c1cn(C2CC2)c2cc(N3CCNCC3)c(F)cc2c1=O [Ciprofloxacin (CFX), Ciprofloxacin] | resistant | 0 |
| CC[C@H]1OC(=O)[C@H](C)[C@@H](O[C@H]2C[C@@](C)(OC)[C@@H](O)[C@H](C)O2)[C@H](C)[C@@H](O[C@@H]2O[C@H](C)C[C@H](N(C)C)[C@H]2O)[C@](C)(O)C[C@@H](C)C(=O)[C@H](C)[C@@H](O)[C@]1(C)O [Erythromycin (ERM), Erythromycin] | resistant | 0 |
| CCC[C@@H]1C[C@@H](C(=O)N[C@@H]([C@H]2O[C@H](SC)[C@H](O)[C@@H](O)[C@H]2O)[C@@H](C)O)N(C)C1 [Lincomycin (LIN), Lincomycin] | resistant | 0 |
| CN(C)[C@@H]1C(O)=C(C(N)=O)C(=O)[C@@]2(O)C(O)=C3C(=O)c4c(O)cccc4[C@@](C)(O)[C@H]3C[C@@H]12 [Tetracycline (TET), Tetracycline] | – | 0 |
| Gentamicin [Gentamicin (GEN)] | resistant | 0 |
| Penicillin [Penicillin (PEN)] | sensitive | 24.51 |
| Trimethoprim-sulfamethoxazole [Trimethoprim-sulfamethoxazole (T/S)] | resistant | 0 |
